Laboratory results published in patent US8318664B2, “Unacylated ghrelin fragments as therapeutic agent in the treatment of obesity” (Alize Pharma SAS, priority 2007, dated 2012).
Entries after “also recorded” stand apart in the source; their conditions may differ. Non-standard residues stand in square brackets, D forms with d. No end group written: not given here.

Experiments:
[1] = tested on: hamster HIT-T15 β-cells; experiment: MTT cell survival assay in HIT-T15 β-cells; assay type: cell-based
Experimental: MTT experiments were also performed in hamster HIT-T15 β-cells, to test the survival effect of UAG (1-28) or its fragments UAG (1-14), UAG (1-18), UAG (1-5) and UAG (17-28) in serum deprived medium, either alone or with IFN-γ/TNF-α/IL-1β. As for the experiments performed on INS-1E β-cells, the peptides were tested at increasing concentrations, ranging from 0.1 nM to 100 nM.
The survival effect of UAG (6-13), UAG (8-13), UAG (8-12), UAG (8-11), UAG (9-12) and UAG (9-11) was assessed in cytokine-treated HIT-T15 β-cells.
The protective effects of peptides UAG (8-13) and UAG (8-12) were found similar to those of UAG (1-14) and UAG (1-18). A peptide made of the inverse sequence of UAG (1-14) and named UAG (14-1), was used as negative control for these experiments (FIG. 5A). […] These effects were however lower than those of UAG (6-13) (FIG. 5B).
UAG fragments with alanine (Ala) substitutions at different amino acid positions (6 to 13) were tested with regards to their survival effects in HIT-T15 hamster β-cells. The cells were cultured in serum deprived medium, either alone or with IFN-γ/TNF-α/IL-1β. The peptides were tested at the concentrations of 1 nM to 100 nM. […] Under treatment with cytokines, where cell survival was reduced by ≈18% with respect to serum starved conditions, all Ala substitutions, except those at positions 10 and 11, completely reversed cell death and brought the survival rate to levels that were even higher than those under serum-free conditions, at both 1 nM and 100 nM concentrations. These effects were similar to those elicited by the original peptide UAG (6-13) (FIG. 11B).
Particularly, the best effect was exerted by Gly 6-UAG (6-13), whereas the lowest was seen using AcSer 6-UAG (6-13), AcSer 6-(D)Pro 7-UAG (6-13) (FIG. 12B).
(§1) Hamster HIT-T15 insulin-secreting β-cells were obtained and cultured as described (Refs. 14, 4). INS-1E rat β-cells were kindly provided by Prof. Claes B. Wollheim (University Medical Center, Geneva, Switzerland) and cultured as described (Refs. 14, 4). Cell culture reagents were from Invitrogen (Milano, Italy). Cytokines were from Biosource (Invitrogen, Italy).
(§2) Cell survival was assessed by 3-[4,5-dimethylthiazol-2-yl]-2,5diphenyltetrazolium bromide (MTT) as described previously (Ref. 4). Cells were seeded on 96-well plates at a density of 5×10^3 cells/well. After treatments, cells were incubated with 1 mg/ml MTT for ≈1 h. The medium was aspirated, and the formazan product solubilized with 100 μl DMSO. Viability was assessed by spectrophotometry at 570 nm absorbance using a 96-well plate reader.

[2] = tested on: HIT-T15 β-cells; experiment: Cytokine-induced apoptosis in HIT-T15 β-cells; assay type: cell-based, hamster; details: 24 h serum-free medium with IFN-γ/TNF-α/IL-1β, 1, 10, 100 nM
Experimental: HIT-T15 β-cells were cultured for 24 h in serum-free medium, either alone or with IFN-γ/TNF-α/IL-1β. In both cell lines, apoptosis increased under cytokine treatment, with respect to serum starvation alone. […] UAG (14-1), the inverse sequence of UAG (1-14), was used as negative control, whereas UAG (1-28), was used as positive control in each experiment.

[3] = tested on: INS-1E rat β-cells; experiment: MTT cell survival assay in INS-1E β-cells; assay type: cell-based; details: 0.1 nM to 100 nM
Experimental: The peptides were tested at increasing concentrations, ranging from 0.1 nM to 100 nM.
as §1, §2

[4] = tested on: human pancreatic islets; experiment: MTT cell survival assay in human pancreatic islets; assay type: cell-based; details: human islet cells, 1 nM to 100 nM
Experimental: The survival effect of UAG (1-14), UAG (1-18), UAG (1-5) and UAG (17-28), with respect to that of full length UAG (1-28), was assessed in human pancreatic islets by MTT. The peptides were tested in islet cells cultured in serum deprived medium, either alone or with IFN-γ/TNF-α/IL-1β (5 ng/ml each).
Human islets were obtained from pancreases of multiorgan donors as described (Ref. 4). Islet preparations with purity >70%, not suitable for transplantation, were provided by European Consortium for Islet Transplantation (ECIT) “Islets for Research Distribution Program,” Transplant Unit, Scientific Institute San Raffaele, Vita-Salute University, Milan. Islets (10,000) were cultured in CMRL (Invitrogen) with 10% FBS.
as §2

[5] = tested on: C57BL/6J male mice on high fat diet; experiment: High fat diet (HFD) pre-diabetic/onset obesity model in C57BL/6J mice; assay type: in vivo, mouse
Experimental: In order to assess the effects of UAG and cyclic UAG (6-13) on the metabolic responses to a high fat diet, ten (10) week old C57BL/6J male mice were allowed to acclimatize in the animal facility for 1 week. The mice were fed a standard chow (also referred herein as “normal diet” or “ND”, 9% kcal fat) and were maintained in 12 hour:12 hour light:dark conditions at 21° C. (FIG. 17).
At 11 weeks, the mice were separated into 2 different streams (n=10): the first stream consisted in 4 weeks of normal diet and the second stream consisted in 2 weeks of normal diet followed by 2 weeks of high fat diet (also referred herein as “HFD”, 41% kcal fat) with Intraperitoneal Glucose Tolerance Testing (IPGTT) (also referred herein as “IPGTT”) and Intraperitoneal Insuline Tolerance Testing (also referred herein as “IPITT”). Baseline 24 h food intake and IPGTTs were run before pump implantation (FIG. 17).
Alzet 1004 micro-osmotic pumps containing saline, UAG or cyclic UAG (6-13) were implanted at week 0 of the procedure depicted in FIG. 17 in the mice of the two streams (sc., interscapular) under isoflurane anesthesia and peri-operative carprofen analgesia (5 mg/kg sc.). UAG or cyclic UAG (6-13) peptides were infused at 4 nmol/kg/hr.
Body weight and 24 h food intake were measured weekly for 4 weeks and IPGTTs were performed bi-weekly for 4 weeks. […] The suppression in body weight gain observed in peptide-treated mice can therefore not be explained by a reduced food intake.
GTTs were performed following a 6 h fast starting at 8 am, then ˜100 μl of blood was collected from the tail vein (t=0) for measurement of insulin under fasting conditions (no anesthesia). Mice were injected ip. with 2 g/kg glucose in saline solution. Glucose was then measured using a glucometer using ˜0.5 μl of tail vein blood at t=0, 15, 30, 45, 60 and 120 minutes. During the GTT at wk 4 samples of ˜25 μl of tail vein blood were also collected at 15, 30 and 120 minutes for insulin determination.
The day after the final IPGTT, mice were fasted for 4 h starting at 8 am, then injected with human insulin (Actrapid, Novo Nordisk) at 0.5 IU/kg. Glucose in tail vein blood (˜0.5 μl) was measured with a glucometer at t=0, 15, 30, 45, 60 and 120 minutes (no anesthesia).
Tail vein blood glucose was measured by glucometer biweekly from free-fed mice in the non-IPGTT experimental streams (no anesthesia).

[6] = tested on: UAG receptor on HIT-T15 pancreatic β-cells; experiment: Competition with [125I-Tyr4]-UAG for binding sites on HIT-T15 membranes; set-up: species or system hamster
Experimental: (§3) The ability of the fragment UAG (6-13) to compete in a concentration-dependent manner with [^125I-Tyr^4]-UAG for HIT-T15 (FIG. 10A) and INS-1E (FIG. 10B) binding sites was assayed. As shown in FIGS. 10A and 10B, unlabelled UAG (1-28) and UAG (6-13) competed with a similar efficacy and in a concentration-dependent fashion with [^125I-Tyr^4]-UAG for such binding sites in both cell lines.
(§4) Membranes from hamster HIT-T15 and rat INS-1E pancreatic β-cells were prepared and assayed for the presence of [^125I-Tyr^4]-UAG binding. The ability of UAG fragments to compete with the radioligand for such binding sites has been evaluated as previously described (Ref. 4). Data are presented as mean±S.E.M. of three independent experiments.

[7] = tested on: UAG receptor on INS-1E pancreatic β-cells; experiment: Competition with [125I-Tyr4]-UAG for binding sites on INS-1E membranes; set-up: species or system rat
Experimental: as §3, §4

[8] = serum deprived medium with IFN-γ/TNF-α/IL-1β
[9] = serum deprived medium with IFN-γ/TNF-α/IL-1β (5 ng/ml each)

Ac-Ser-Pro-Glu-His-Gln-Arg-Val-Gln-NH2 (Ac-SPEHQRVQ-NH2; listed as Homo sapiens) [AcSer 6-UAG (6-13)]
cell survival (MTT) [1, 8]: lowest

Ac-Ser-pro-Glu-His-Gln-Arg-Val-Gln-NH2 (Ac-S[dP]EHQRVQ-NH2; listed as Homo sapiens) [AcSer 6-(D)Pro 7-UAG (6-13)]
cell survival (MTT) [1, 8]: lowest

EHQRVQ [UAG (8-13)]
cell survival (MTT) [1, 8]: significant protective effect at all the concentrations examined; also recorded: strongly effective in increasing survival | antiapoptotic effect (cytokine-induced apoptosis) [2]: significantly inhibited apoptosis at 10 and 100 nM; also recorded: strongest antiapoptotic effect

ESKKPPAKLQPR [UAG (17-28)]
cell survival (MTT) ([3]; serum deprived medium alone): reduced, although significant, survival action; also recorded: only a trivial effect | cell survival (MTT) [3, 8]: reduced effect; also recorded: only a trivial effect | cell survival (MTT) ([1]; serum deprived medium alone): no significant effect; also recorded: very little effect | cell survival (MTT) [1, 8]: no significant effect; also recorded: very little effect | cell survival (MTT) ([4]; serum deprived medium alone): significantly increased survival of islet cells | cell survival (MTT) [4, 9]: had no effect

Glu-His-Gln-Arg (EHQR; listed as Homo sapiens) [UAG (8-11)]
cell survival (MTT) [1, 8]: significant survival effect only at 100 nM

Glu-His-Gln-Arg-Val (EHQRV; listed as Homo Sapiens) [UAG (8-12)]
cell survival (MTT) [1, 8]: strongly effective in increasing survival | antiapoptotic effect (cytokine-induced apoptosis) [2]: some protective effect only at 100 nM; also recorded: strongest antiapoptotic effect

Gly-Pro-Glu-His-Gln-Arg-Val-Gln-NH2 (GPEHQRVQ-NH2; listed as Homo sapiens) [Gly 6-UAG (6-13)]
cell survival (MTT) [1, 8]: best effect

Gly-Ser-Ser-Phe-Leu (GSSFL; listed as Homo sapiens) [UAG (1-5)]
cell survival (MTT) ([3]; serum deprived medium alone): reduced, although significant, survival action; also recorded: only a trivial effect | cell survival (MTT) [3, 8]: reduced effect; also recorded: only a trivial effect | cell survival (MTT) ([1]; serum deprived medium alone): very little effect | cell survival (MTT) [1, 8]: slightly increased cell survival; also recorded: very little effect | cell survival (MTT) ([4]; serum deprived medium alone): little, although significant survival action at 10 nM | cell survival (MTT) [4, 9]: no cell protection

His-Gln-Arg [UAG (9-11)]
cell survival (MTT) [1, 8]: no significant effect at both concentrations tested

His-Gln-Arg-Val (HQRV; listed as Homo sapiens) [UAG (9-12)]
cell survival (MTT) [1, 8]: significantly increased cell survival at both the concentrations tested

Ser-Pro-Glu-His-Gln-Arg-Val-Gln (cyclic) (SPEHQRVQ; cyclic; (1)..(8) Cyclic; listed as Homo sapiens) [cyclic UAG (6-13)]
body weight gain ([5]; HFD, 4 nmol/kg/hr sc. infusion, compared to saline-HFD): suppressed body weight gain | glucose levels in fasting or fed state ([5]; HFD, pre-diabetic, normoglycemic conditions): does not significantly affect glucose levels | HFD-induced insulin resistance (insulin tolerance test, area above the glucose curve) ([5]; IPITT, HFD): restores insulin resistance to a level that is comparable to ND control | HFD-induced glucose intolerance (IPGTT) ([5]; after 2 weeks on the HFD): prevents glucose intolerance | reduction of eWAT normalized for body weight ([5]; at 4 weeks, HFD): about 28% | weight of epididymal white adipose tissue (eWAT) ([5]; at 4 weeks, HFD): lower than that of the control mice fed on the HFD

UAG (1-13): fragment named only in b101 as binding to the UAG receptor; possibly a misprint (GSSFLSPEHQRVQ)
binding to the UAG receptor [6]: recognized and bound | binding to the UAG receptor [7]: recognized and bound
